Measured values: US20230390315A1, “COMPOSITIONS AND METHODS FOR TREATING ISCHEMIC CONDITIONS” (The Regents of the University of California, priority 2020, published 2023)

How the values were obtained:
[1] = tested on: bovine choroidal microvascular endothelial cells (BCEC); test: BCEC proliferation assay; type: cell-based
Description: Proliferation assays with BCECs and BRECs were performed. Log-phase growing BCECs or BRECs (passage <10) were trypsinized, re-suspended and seeded in 96-well plates (no coating) in low-glucose DMEM supplemented with 10% bovine calf serum, 2 mM glutamine, and antibiotics (growth medium), at a density of 1200-1500 cells per well in 200 μl volume. All reagents were added at the indicated final concentrations. […] Fluorescence was measured at 530 nm excitation wavelength and 590 nm emission wavelength. The experiments were repeated at least three times. […] On each 96-well plate, untreated and VEGF-treated (10/ng/ml) wells were included to monitor plate-to-plate variations. 20% methanol or 0.05% DMSO served as negative controls. 0.05% DMSO served as negative controls when Cas was tested in these cells. Human […] and human adult […] were split into Gelatin-coated 96 wells (2000 cells per well) in low glucose DMEM containing 10% FBS. 1200 cells/well was set up for proliferation assay in low glucose media containing FBS. […] HUVEC (p7-10) were grown on gelatin-coated plate until it reached 70-80% confluency. On the day of the assay, cells were dissociated with 0.05% trypsin, which was neutralized with 0.5% FBS-containing EBM. Cells were briefly spun and then re-suspended in 0.5% FBS-media. Cells were counted and plated in 96-well, 1000 cells/well. Triplicate wells were used for each treatment. Data were collected at day 3, and then cells were fixed in 4% paraformaldehyde for 15 min before adding crystal violet. Cell-covered areas were quantified after taking pictures by Image J software.

Bip, CHOP and ATF-6 = test: Western blot of UPR responsive proteins in BCECs; type: cell-based, bovine
Description: Cells were allowed to reach ˜80% confluency in 12-well plates. […] At various time points, plates were taken out of the incubator and kept on ice. Cell monolayers were first washed once with ice-cold PBS before lysis with 250 μl of Pierce RIPA buffer (ThermoFisher Scientific, Rockford, IL) or use 50 mM Tris-HCl (pH 7.6), 150 mM NaCl, 10% Glycerol, 1% NP-40 containing protease/Phosphatase inhibitor cocktail (100×) (Cell signaling, #5872). Lysates were collected and mixed with 4×Bolt LDS Sample Buffer (Novex, Carlsbad, CA) in the presence of Halt protease inhibitors and phosphatase inhibitor cocktail (ThermoFisher scientific, #NP0007). The samples were subjected to SDS-PAGE (Bolt 4-12% Bis-Tris Plus, Invitrogen) using Bolt MES SDS running buffer or NuPAGE 3-8% Tris-Acetate gel using Tris-Acetate SDS running buffer (Novex). HUVECs (passage 6-8) were plated in EBM-2 basal medium (Lonza) with 0.2% FBS. […] Equal amounts of protein lysates were analyzed by SDS-PAGE and blotted with the indicated antibodies. Proteins were transferred using Tris-Glycine buffer with 20% Methanol (Proteonomics grade) (Apex BioResearch Products). Membranes were first incubated with 5% milk in TBST, pH 7.6 (TEKnova, Hollister, CA), followed by blotting with primary and secondary antibodies. ECL anti-rabbit IgG, horseradish peroxidase linked whole antibody from donkey or sheep anti-mouse were obtained from GE Healthcare (UK limited). SuperSignal West Dura Extended Duration substrate was from ThermoFisher Scientific. In some cases, the same PVDF membranes were stripped by 8-min incubation in the Restore Plus Western Blot Stripping Buffer (ThermoFisher Scientific) to show total specific protein expression, followed by second stripping for β-actin expression.

U87MG = U87MG proliferation assay; type: cell-based, human
Description: Proliferation assays with fibroblasts were done in low-glucose DMEM containing 1% FBS, with or without 10 ng/ml bFGF, or 100 ng/ml human EGF and the assay was ended at day 3. ARPE-19 cells were gently lifted with 0.025% trypsin and plated in RtEGM media (Clonetics) containing 2% FBS, L-glutamine, human bFGF and GA-1000. Once cells were attached to plates, serum-free RtEGM media was used to maintain the cultures. For proliferation assays, 1500 human RPE cells were plated into 96-well plates in low-glucose DMEM containing 1% FBS. A673, U87MG, Calu6 and AML12 cells were grown until confluent and were then harvested and re-suspended in appropriate assay media. For proliferation assays, cells were plated at the density of 1000-2000 cells/well in low-glucose DMEM containing 5% FBS or otherwise stated. Bovine pituitary cells (pituitary folliculostellate cells) were isolated as previously described. For proliferation assays with human epidermal keratinocytes, human DMVECs and human dermal fibroblast cells, 1000 cells/well were plated in low-glucose DMEM containing 1% FBS with or without various growth factors. The assay was ended at day 3 for bovine pituitary cells and at day 4 for all the other cell types. […] Four days later, tumor cell growth was measured by the MTS assay (Promega, Madison, WI), a colorimetric assay that measures metabolic activity of viable cells. […]

ischemic hindlimb = test: Hindlimb ischemia model and blood flow; type: in vivo, mouse; details: for blood perfusion ratio, of sham-treatment limbs: 3 weeks; for blood vessel density compared with H2O-treated control (CD31): 3 weeks post-ligation; for blood flow recovery (perfusion ratio): one week after surgery, 20% ManN oral or 1 mg/ml Kif ip every other day
Description: C57BL/6 male mice (6-8 weeks old) were subjected to unilateral hindlimb surgery under anesthesia with ketamine/xylazine cocktail. Briefly, the left femoral artery was separated from the vein and nerve, ligated proximally, and excised. The right hindlimb served as control. Blood flow was measured by using a laser Doppler perfusion imager (PeriScan PSI; Perimed). Ischemic and nonischemic limb perfusion was measured before and after surgery and 1, 2 and 3 weeks later. After surgery, mice were randomly allocated to different groups (8 mice for each group). 200 μl of 20% ManN was orally administrated every other day from 3rd day after surgery. 200 μl of 1 mg/ml Kif was administrated through ip injection every other day. H2O was used as a vehicle control. The final blood flow values were expressed as the ratio of ischemic to nonischemic hindlimb perfusion from the same animal. Quantification of blood vessel area was carried out as described.

For N[C@H](C=O)[C@@H](O)[C@H](O)[C@H](O)CO [ManN, 2-Amino-2-deoxy-D-mannose], the “dose range with significant stimulatory effects” value [1] was 5 to 500 µM, the “additivity with VEGF in promoting BCEC proliferation” value ([1]; 5 ng/ml VEGF) was “additive with VEGF” and the “additivity with bFGF in promoting BCEC proliferation” value ([1]; 20 ng/ml bFGF) was “Additive effects”. The “fold increase in fluorescence units upon AlamarBlue addition” value ([1]; 50 uM ManN and 5 ng/ml VEGF, compared to VEGF alone) was 2.5-3 fold, the “maximal fold increase in EC-covered surface” value ([1]; ManN at 50 uM alone, crystal violet, FIG. 1A) was about 6.5 fold and the “dependence of VEGFR2 mass decrease and BCEC proliferation stimulation on VEGFR2 signaling” value ([1]; experiments with VEGFR2 inhibitor axitinib) was “not dependent on VEGFR2 signaling”. The “additivity between ManN and VEGF in glucose-free media” value ([1]; glucose-free media) was “abolished”, the “concentration with significant cytotoxicity” value ([1]; glucose-free media, even in the presence of VEGF) was 4 µM and the “dose-response of effects on BCEC proliferation” value ([1]; with or without VEGF) was “bell-shaped dose-response curve, with inhibition at higher concentrations”. The “synergy between ManN and VEGF in promoting Bip or CHOP expression” value (Bip, CHOP and ATF-6) was “No synergy”, the “time at which accumulation of Bip is evident” value (Bip, CHOP and ATF-6) was 24 h and the “time of CHOP induction” value (Bip, CHOP and ATF-6; dose-dependent) was “about 6 hours”. For the same compound, the Bip expression (Bip, CHOP and ATF-6; growing cells deprived of growth factor supply) was “significantly turn on Bip expression in a concentration-dependent manner”, the “growth of U87MG” value (U87MG) was “did not promote growth” and the “blood perfusion ratio, of sham-treatment limbs” value (ischemic hindlimb) was about 50%. The “blood vessel density compared with H2O-treated control (CD31)” value (ischemic hindlimb) was 2.3 times and the “blood flow recovery (perfusion ratio)” value (ischemic hindlimb) was “about 40%”.
In the case of O=C1N[C@@H]2[C@@H](O)[C@@H](O)[C@H](O)[C@@H](CO)N2C1=O [Kif, Kifunensine, reference compound], the “BCEC proliferation with N-glycosylation inhibitors” value ([1]; absence or presence of 5 ng/ml VEGF) is reported as “stimulated in a dose-dependent fashion”, the “Bip expression with glycosylation inhibitors” value (Bip, CHOP and ATF-6; media without growth factors for 24 hours) is reported as “dose-dependent induction of Bip expression” and the “blood perfusion ratio, of sham-treatment limbs” value (ischemic hindlimb) is reported as about 50%. The “blood vessel density compared with H2O-treated control (CD31)” value (ischemic hindlimb) was 1.8 times and the “blood flow recovery (perfusion ratio)” value (ischemic hindlimb) was about 47%.
